Legend:
[1] = target: T1, Opioid receptor (Rattus norvegicus, UniProt P33533+P34975+P33535); experiment: Compound was tested for its binding affinity towards Opioid receptors in rat membranes in the presence of [3H]naloxone; format: cell membranes
[2] = target: Sigma 2 receptor; experiment: Inhibition of [3H]DTG binding to sigma-2 sites of guinea pig brain membranes
[3] = Compound was tested for its binding affinity towards PCP receptor in rat membranes in the presence of [3H]-(+)-SKF- 10,047; format: cell membranes
[4] = target: T1, Opioid receptor; experiment: Inhibition of [3H]naloxone binding to Opioid receptors of rat brain membranes; format: cell membranes, Membrane
[5] = target: T2, Muscarinic acetylcholine receptor M2 (Rattus norvegicus, UniProt P10980); experiment: Inhibition of [3H]N-methylscopolamine binding to Muscarinic acetylcholine receptor M2 of rat heart membranes; format: cell membranes, Membrane
T2 sequence (P10980 whole entry): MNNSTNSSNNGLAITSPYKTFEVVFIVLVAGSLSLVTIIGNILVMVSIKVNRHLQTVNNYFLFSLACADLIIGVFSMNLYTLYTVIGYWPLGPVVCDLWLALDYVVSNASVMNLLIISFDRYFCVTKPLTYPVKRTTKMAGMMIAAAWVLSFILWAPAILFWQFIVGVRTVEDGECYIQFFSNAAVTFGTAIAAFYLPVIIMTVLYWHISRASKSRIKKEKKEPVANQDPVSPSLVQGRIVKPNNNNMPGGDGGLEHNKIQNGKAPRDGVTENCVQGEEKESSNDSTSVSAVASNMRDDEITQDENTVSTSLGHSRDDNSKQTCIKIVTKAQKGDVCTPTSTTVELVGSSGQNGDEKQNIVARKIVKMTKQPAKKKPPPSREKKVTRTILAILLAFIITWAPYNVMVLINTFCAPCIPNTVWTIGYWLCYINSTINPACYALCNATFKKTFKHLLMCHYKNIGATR

[6] = target: Serotonin 2 (5-HT2) receptor; experiment: Inhibition of [3H]ketanserin binding to 5-hydroxytryptamine 2 receptor of guinea pig frontal cortex membranes; format: tissue-based, Cavia porcellus
[7] = target: T3, D(2) dopamine receptor (Rattus norvegicus, UniProt P61169); experiment: Binding affinity towards Dopamine receptor D2 in the rat striatal membranes using [3H]spiroperidol; format: cell membranes, Striatum, Membrane
T3 sequence (P61169 whole entry): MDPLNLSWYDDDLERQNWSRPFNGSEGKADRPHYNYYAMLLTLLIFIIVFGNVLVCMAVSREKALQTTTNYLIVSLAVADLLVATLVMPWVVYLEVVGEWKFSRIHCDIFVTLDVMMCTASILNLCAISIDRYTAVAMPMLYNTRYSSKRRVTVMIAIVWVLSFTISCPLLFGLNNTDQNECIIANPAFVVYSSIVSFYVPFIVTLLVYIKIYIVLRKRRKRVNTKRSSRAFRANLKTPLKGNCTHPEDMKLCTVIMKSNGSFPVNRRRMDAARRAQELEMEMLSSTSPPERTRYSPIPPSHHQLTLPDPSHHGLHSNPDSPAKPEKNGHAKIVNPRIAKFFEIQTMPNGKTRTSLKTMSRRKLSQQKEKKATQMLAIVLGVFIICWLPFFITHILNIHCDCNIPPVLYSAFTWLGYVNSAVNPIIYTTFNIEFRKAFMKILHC

[8] = target: T3, D(2) dopamine receptor; experiment: Inhibition of [3H]spiroperidol binding to Dopamine receptor D2 of rat striatal membranes; format: cell membranes, Membrane

Compound | Ki [1] [nM] | Ki [2] [nM] | Ki [3] [nM] | Ki [4] [nM] | Ki [5] [nM] | Ki [6] [nM] | Ki [7] [nM] | Ki [8] [nM]
C[C@@H]1[C@@H]2Cc3ccc(O)cc3[C@]1(C)CCN2CCNCc1ccccc1 | 366 | 187 |  |  |  |  |  | 
C[C@@H]1[C@@H]2Cc3ccc(O)cc3[C@]1(C)CCN2CCN1CCCCC1 |  | 114 | > 10000 | 12000 | 7800 | > 10000 | > 10000 | 
C[C@@H]1[C@@H]2Cc3ccc(O)cc3[C@]1(C)CCN2CCN1CCCCCC1 |  | 151 | 50.2 | 9128 | 1840 | > 10000 |  | > 10000
CCN(CC)CCN1CC[C@@]2(C)c3cc(O)ccc3C[C@H]1[C@H]2C |  | 378 | 7640 | 12290 | 1990 | > 10000 |  | > 10000
CC(C)=CCN1CC[C@]2(C)c3cc(O)ccc3C[C@H]1[C@H]2C (single isomer, unassigned) [(+)-PENTAZOCINE] | 2370 |  | 4320 |  |  |  |  | 
C[C@@H]1[C@@H]2Cc3ccc(O)cc3[C@]1(C)CCN2CCNc1ccccc1 |  | 111 |  | 79.8 |  |  |  | 
C=CCN1CC[C@]2(C)c3cc(O)ccc3CC1[C@@H]2C (single isomer, unassigned; (+)) | 1900 |  | 448 |  | > 10000 | > 10000 |  | > 10000
CCN(CCN1CC[C@@]2(C)c3cc(O)ccc3C[C@H]1[C@H]2C)c1ccccc1 |  | 151 |  | 211 |  |  |  | 
C[C@@H]1[C@@H]2Cc3ccc(O)cc3[C@]1(C)CCN2CCN1CCOCC1 |  | 300 | > 1000 | 8168 | 419 | > 10000 |  | > 10000
C[C@@H]1[C@@H]2Cc3ccc(O)cc3[C@]1(C)CCN2CCNC1CCCCC1 |  | 328 | > 10000 | 1466 | > 10000 | > 10000 |  | > 10000
C[C@@H]1[C@@H]2Cc3ccc(O)cc3[C@]1(C)CCN2CCN1CCCC1 |  | 260 | > 10000 | 3800 | 1950 | > 10000 |  | > 10000
C[C@@H]1[C@@H]2Cc3ccc(O)cc3[C@]1(C)CCN2CCN(C)C |  | 347 | 3380 | 2888 | > 10000 | > 10000 |  | > 10000
C[C@@H]1[C@@H]2Cc3ccc(O)cc3[C@]1(C)CCN2CCN(C)c1ccccc1 |  | 124 |  | 28.8 |  |  |  | 

Source: ChEMBL document CHEMBL1131505, “(+)-cis-N-ethyleneamino-N-normetazocine derivatives. Novel and selective sigma ligands with antagonist properties” (J Med Chem, 1998)
